Experimental data: PMC6571673, “Cytostatic and Cytotoxic Natural Products against Cancer Cell Models” (Molecules, 2019)

Experiments:
[1] = Simulated gastric fluid (SGF) stability; type: in vitro ADME; conditions: read-out: SGF stability t1/2
Description: (§1) To gain further information regarding intracellular compound localization, studies were extended to include a marker for the ER (Figure 8). The staining pattern for the individual probes are shown in Figure 8A (ER), Figure 8B (Lysosome) and Figure 8D (probe 9a). […] Moreover, when all three channels were merged, white specks were observed, indicating co-localization of probe 9a with cellular structures that are stained by both ER and lysosomal marker dyes (Figure 8F). […] These mechanisms provide a plausible explanation for the lower potency of compound 9 compared to compound 10. Finally, in vitro ADME (absorption, distribution, metabolism, and elimination) profiles were evaluated for compounds 9 and 10 to compare with the obtained cellular data (Supplementary Material, Figure S10). The aqueous solubility properties at physiological pH (7.40) of compounds 9 and 10 were good compared to controls. […] The combined findings indicate that the steric-effects of the hydroxysuccinate appendage of compound 10 renders it less prone to degradation by lysosomal activity or other competing cellular removal mechanisms.

[2] = tested on: BJ; test: CTG viability assay (CellTiter-Glo, 72 h); type: cell-based, human; conditions: for EC50: Homo sapiens, BJ, CellTiter-Glo, 72 h, non-cancerous cells
Procedure: (§2) All human cell lines were incubated at 37 °C in a 5% CO2 atmosphere and maintained under sterile conditions. Cells were tested for Mycoplasma (Lonza, Alpharetta, GA, USA) using the manufacturer’s conditions prior to experiments. Cell lines were purchased from American Type Culture Collection (ATCC, Manassas, VA, USA) or Leibniz-Institute Deutsche Sammlung von Mikroorganismen und Zellkulturen GmbH (DSMZ, Braunschweig, Germany) and cultured without antibiotics unless stated. Leukemia cells were cultured in RPMI and supplemented with 10% fetal bovine serum (FBS, Hyclone, Logan, UT, USA). SUP-B15, and KOPN-8 lines were cultured in RPMI supplemented with 10% FBS (Hyclone), 1% GlutaMAX™, 1% Pen/Step, and 0.1% β-mercaptoethanol. BJ cells were cultured in EMEM media supplemented with 10% FBS (Hyclone). Breast cancer cells (MDA-MB-231 & SUM149) were cultured in DMEM and Ham’s F12 respectively, supplemented with 10% FBS, 1% GlutaMAX™, 1% Pen/Step, and 2 µM cortisol/1 µg/mL insulin for SUM149. Both cells were grown to 80% confluence densities as recommended by ATCC. PBMCs were supplemented with concanavalin-A (5 μg/mL) and IL-2 (50 U/ml). To test general cytotoxicity, the following cell numbers were used for 384 well plates: KOPN-8 (ACC 552, infant human B cell precursor acute lymphoblastic leukemia with MLL-MLLt1/ENL fusion, 1000 cells/well), SUP-B15 (ACC389, human B cell precursor acute lymphoblastic leukemia of pediatric second relapse carrying the ALL-variant (m-bcr) of BCR-ABL1 fusion gene (e1-a2), 1600 cells/well), NALM-06 (DSMZ ACC128, non-T/non-B ALL at relapse with P15INK4B and P16INK4A deletions, 1200 cells/well), UoC-B1 (pediatric BCP-ALL at second relapse with TCF3/E2A-HFL fusion, 1000 cells/well), BJ (CRL-2522, normal human foreskin fibroblast cells, 400 cells/well) and PBMCs (periphery blood monocyte cells from healthy donors, IBC#BDC046, 10,000 cells/well).
(§3) Cytotoxicity evaluation was performed using the CellTiter-Glo Luminescent Cell Viability Assay kit (G7570, Promega, Madison, WI, USA), according to the manufacturer’s instructions. Briefly, the cell concentrations used were experimentally determined to ensure logarithmic growth during the 72-h duration of the experiment, and avoid adverse effects on cell growth by DMSO exposure. 1 × 10^3–4.8 × 10^3 or 4 × 10^2–1.2 × 10^3 cells/well were seeded in 96 or 384-well white flat-bottomed plates (3610 or 8804BC, Corning, Corning, NY, USA) in 100 µL or 30 µL/well, respectively. The plates were incubated at 37 °C in 5% CO2 for 24 h before drugging. Test compounds (10 mM in DMSO) in nine 3-fold serial dilutions were dispensed via pintool (Biomek liquid handler, Beckman, Indianapolis, USA) to assay plates. The final concentration of DMSO was 0.3% (v/v) in each well. The positive controls included staurosporine (10 μM), and gambogic acid (10 μM). The plates were incubated for 72 h at 37 °C in 5% CO2, then quenched with CellTiter-Glo® (Promega, Madison, WI, USA, 50 µL/96 or 30 µL/384), centrifuged at 1000 rpm for 1 min and incubated at RT for 20 min. Luminescence was recorded with a plate reader (Envision, Perkin Elmer, Waltham, MA, USA). The mean luminescence of each experimental treatment group was normalized as a percentage of the mean intensity of untreated controls. EC50 values were calculated by Pipeline Pilot software (Accelrys, Enterprise Platform, San Diego, CA, USA).

[3] = tested on: SUP-B15; test: CTG viability assay (CellTiter-Glo, 72 h); type: cell-based, human
Procedure: as §2, §3

[4] = Metabolic stability in liver microsomes; type: in vitro ADME; conditions: for half-life: read-out: metabolic stability t1/2
Description: as §1

[5] = Aqueous solubility; type: physicochemical; conditions: physiological pH (7.40), compared to controls
Description: as §1

[6] = tested on: SUP-B15; test: ApoTox-Glo triplex assay; type: cell-based, human; conditions: SUP-B15, 36 h; 9 0.2–100 µM, 10 0.02–10 µM
Procedure: Cells (9.5 × 10^4 cells/well in 75 µL) were dispensed in 96-well black flat bottom (8807BC, Corning) plates. The cells were incubated for 12 h at 37 °C and treated with compounds (25 µL) for 36 h. DMSO was used as a negative control and camptothecan was used as the positive control. Then, the experiment was stopped by adding the Viability/Cytotoxicity Reagent, and briefly mixed by orbital shaking (300–500 rpm for ~30 s). Plates were incubated for 30 min at 37 °C and fluorescence was measured at the wavelength 400Ex/505Em for viability and 485Ex/520Em for cytotoxicity in an Envision plate reader (Perkin Elmer). Finally, the Caspase-Glo® 3/7 Reagent was added, and the plates were mixed by orbital shaking (300–500 rpm for ~30 s), followed by an additional 30 min incubation at RT. Luminescence was recorded with a plate reader (Envision, Perkin Elmer) to capture caspase 3/7 activation and determine apoptosis induction.

[7] = tested on: UoC-B1; test: CTG viability assay (CellTiter-Glo, 72 h); type: cell-based; conditions: Homo sapiens, mean ± SEM of triplicates
Procedure: as §2, §3

[8] = tested on: NALM-06; test: CTG viability assay (CellTiter-Glo, 72 h); type: cell-based; conditions: Homo sapiens, mean ± SEM of triplicates
Procedure: as §2, §3

[9] = tested on: PBMC; test: CTG viability assay (CellTiter-Glo, 72 h); type: cell-based; conditions: Homo sapiens, non-cancerous cells
Procedure: as §2, §3

[10] = tested on: KOPN-8; test: CTG viability assay (CellTiter-Glo, 72 h); type: cell-based; conditions: Homo sapiens, mean ± SEM of triplicates
Procedure: as §2, §3

COC1=C[C@]23CCCN2CCc2cc4c(cc2[C@@H]3[C@@H]1O)OCO4 [Compound 9, cephalotaxine]
half-life ([1]; simulated gi fluid): > 33 h | EC50 [2]: > 43.3 µM | EC50 ([3]; Homo sapiens, SUP-B15, mean ± SEM of triplicates): 10.4 ± 0.75 µM | metabolic stability t1/2 ([4]; human liver microsomes): rapidly degraded | metabolic stability t1/2 ([4]; mouse liver microsomes): rapidly degraded | aqueous solubility [5]: good | caspase 3/7 activity [6]: increased caspase 3/7 activity | cytotoxicity by membrane integrity (bis-AAF-RF110) [6]: little cytotoxic effects | viability (GF-AFC) [6]: decreased viability | EC50 [7]: 17.6 ± 5.8 µM | EC50 [8]: 9.5 ± 2.7 µM | EC50 [9]: > 83 µM | EC50 [10]: 23.1 ± 5.2 µM

COC(=O)C[C@](O)(CCCC(C)(C)O)C(=O)O[C@@H]1C(OC)=C[C@]23CCCN2CCc2cc4c(cc2[C@H]13)OCO4 [Compound 10, homoharringtonine, reference compound]
half-life [1]: > 33 h | EC50 [2]: > 43.3 µM | activity against BJ ([2]; at the highest tested concentration (43.3 µM)): no observable activity | EC50 ([3]; Homo sapiens, SUP-B15, 72 h, mean ± SEM of triplicates): 0.0452 µM | EC50 ([3]; mean ± SEM of triplicates): 0.045 ± 0.005 µM | half-life ([4]; human liver microsomes): ≥ 1 h | half-life ([4]; mouse liver microsomes): ≥ 1 h | aqueous solubility [5]: good | caspase 3/7 activity [6]: increased caspase 3/7 activity | cytotoxicity by membrane integrity (bis-AAF-RF110) [6]: little cytotoxic effects | viability (GF-AFC) [6]: decreased viability | EC50 [7]: 0.0129 ± 0.002 µM | EC50 [8]: 0.0322 ± 0.01 µM | EC50 [9]: 6.35 µM | EC50 [10]: 0.0799 ± 0.01 µM
